Bounds are passed on as bounds.

human PD-L1, sequence (Q9NZQ7 19-239): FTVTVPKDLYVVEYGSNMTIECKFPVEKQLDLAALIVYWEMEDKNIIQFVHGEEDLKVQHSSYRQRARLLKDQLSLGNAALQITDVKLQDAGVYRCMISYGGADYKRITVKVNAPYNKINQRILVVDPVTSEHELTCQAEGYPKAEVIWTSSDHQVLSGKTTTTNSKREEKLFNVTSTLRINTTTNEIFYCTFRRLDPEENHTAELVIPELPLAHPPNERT

This assay has as its target human PD-L1 (Homo sapiens (Human), UniProt Q9NZQ7). The experiment in a line: Enzyme-Linked Immunosorbent Assay—ELISA (PD-1/PD-L1 binding). As to conditions: plates coated with human PD-L1; Human PD-1 and biotin added; absorbance at 450 nm. As for the experimental part: 96 Well plates were coated with 1 μg/mL of human PD-L1 (obtained from R&D) in PBS overnight at 4° C. The wells were then blocked with 2% BSA in PBS (W/V) with 0.05% TWEEN-20 for 1 hour at 37° C. The plates were washed 3 times with PBS/0.05% TWEEN-20 and the compounds were serial diluted (1:5) in dilution medium and added to the ELISA plates. Human PD-1 and biotin 0.3 μg/mL (ACRO Biosystems) were added and incubated for 1 hour at 37° C. then washed 3 times with PBS/0.05% TWEEN-20. A second block was performed with 2% BSA in PBS (W/V)/0.05% TWEEN-20 for 10 min at 37° C. and the plates were washed 3 times with PBS/0.05% TWEEN-20. Streptavidin-HRP was added for 1 hour at 37° C. then the plates were washed 3 times with PBS/0.05% TWEEN-20. TMB substrate was added and reacted for 20 min at 37° C. A stop solution (2 N aqueous H2SO4) was added. The absorbance was read at 450 nm using a micro-plate spectrophotometer. The results are shown in Table 1: IC50 values are provided as follows: from 1000 to 10,000 nM (+); from 10 up to 1000 nM (++); less than 10 nM (+++).
For `COc1nc(-c2cccc(-c3cccc(NC(=O)c4cncn(C)c4=O)c3Cl)c2Cl)ccc1CNC[C@@H]1CCC(=O)N1` [Compound 1.060], the IC50 is < 10 nM.

Turning to `COc1nc(-c2cccc(-c3cccc(NC(=O)c4cn(C)c(=O)n(C)c4=O)c3C)c2F)ccc1CN[C@@H]1CCOC[C@@H]1O` [Compound 1.024], the IC50 is < 10 nM.

Regarding `COc1nc(-c2cccc(-c3cccc(NC(=O)c4cn(C)c(=O)n(C)c4=O)c3Cl)c2Cl)ccc1CNC[C@H](C)O` [Compound 1.034], the IC50 was < 10 nM.

Regarding `COc1nc(-c2cccc(-c3cccc(NC(=O)c4cn(C)c(=O)n(C)c4=O)c3Cl)c2Cl)cnc1CN1CCCC[C@H]1C(=O)O` [Compound 1.091], the IC50 was < 10 nM.

Consider `COc1nc(-c2cccc(-c3cccc(NC(=O)c4cn(C)c(=O)n(C)c4=O)c3F)c2Cl)ccc1CNC[C@@H]1CCC(=O)N1` [Compound 1.059], for which the IC50 was < 10 nM.

Take `CCc1nc(-c2cccc(-c3cccc(NC(=O)c4cn(C)c(=O)n(C)c4=O)c3Cl)c2Cl)ccc1CNC[C@@H]1CCC(=O)N1` [Compound 1.076]: the IC50 was < 10 nM.

Turning to `COc1nc(-c2cccc(-c3cccc(NC(=O)c4cn(C)c(=O)n(C)c4=O)c3Cl)c2Cl)ccc1CN1CC(C(=O)O)C1` [Compound 1.084], the IC50 was < 10 nM.

On to `COc1nc(-c2cccc(-c3cccc(NC(=O)c4cn(C)c(=O)n(C)c4=O)c3Cl)c2Cl)ccc1CNC[C@@H]1CCC(=O)N1` [Compound 1.088], for which the IC50 was < 10 nM.

`COc1nc(-c2cccc(-c3cccc(NC(=O)c4cn(C)c(=O)n(C)c4=O)c3Cl)c2Cl)ccc1CNCCCO` [Compound 1.036]: the IC50 was < 10 nM.

For `COc1nc(-c2cccc(-c3cccc(NC(=O)c4cn(C)c(=O)n(C)c4=O)c3Cl)c2F)ccc1CN[C@@H]1CCOC[C@@H]1O` [Compound 1.018], the IC50 is < 10 nM.

For `COc1nc(-c2cccc(-c3cccc(NC(=O)c4cn(C)c(=O)n(C)c4=O)c3Cl)c2Cl)cnc1CN1CC(C(=O)O)C1` [Compound 1.100], the IC50 is < 10 nM.

`COc1nc(-c2cccc(-c3cccc(NC(=O)c4cn(C)c(=O)n(C)c4=O)c3C)c2Cl)ccc1CNCC(C)(C)CO` [Compound 1.049]: the IC50 was < 10 nM.

As for `COc1cc(-c2cccc(-c3cccc(NC(=O)c4cn(C)c(=O)n(C)c4=O)c3Cl)c2Cl)ncc1CN1CC(C(=O)O)C1` [Compound 1.086], the IC50 was < 10 nM.

`COc1nc(-c2cccc(-c3cccc(NC(=O)c4cn(C)c(=O)n(C)c4=O)c3C)c2Cl)ccc1CN1CC[C@](C)(O)C1` [Compound 1.019]: the IC50 was < 10 nM.

As for `COc1nc(-c2cccc(-c3cccc(NC(=O)c4cn(C)c(=O)n(C)c4=O)c3Cl)c2Cl)cnc1CN1CC2(CCC(=O)N2)C1` [Compound 1.101], the IC50 was < 10 nM.

On to `COc1nc(-c2cccc(-c3cccc(NC(=O)c4cn(C)c(=O)n(C)c4=O)c3C)c2Cl)ccc1CN(C)CCO` [Compound 1.052], for which the IC50 is < 10 nM.

Consider `COc1nc(-c2cccc(-c3cccc(NC(=O)c4cn(C)c(=O)n(C)c4=O)c3C)c2Cl)ccc1CN[C@@H]1CCCC[C@@H]1O` [Compound 1.017], for which the IC50 is < 10 nM.

As to `COc1nc(-c2cccc(-c3cccc(NC(=O)c4cn(C)c(=O)n(C)c4=O)c3Cl)c2Cl)ccc1CN[C@@](C)(CO)C(=O)O` [Compound 1.070], the IC50 was < 10 nM.

Turning to `COc1nc(-c2cccc(-c3cccc(NC(=O)c4cn(C)c(=O)n(C)c4=O)c3Cl)c2Cl)ccc1CNC[C@@H](O)CO` [Compound 1.030], the IC50 is < 10 nM.

Take `COc1nc(-c2cccc(-c3cccc(NC(=O)c4cn(C)c(=O)n(C)c4=O)c3C)c2Cl)ccc1CNC(C)(C)CCO` [Compound 1.050]: the IC50 is < 10 nM.

Take `COc1cc(-c2cccc(-c3cccc(NC(=O)c4cn(C)c(=O)n(C)c4=O)c3Cl)c2Cl)ncc1CN[C@@H]1CCOC[C@@H]1O` [Compound 1.097]: the IC50 was < 10 nM.

`COc1nc(-c2cccc(-c3cccc(NC(=O)c4cn(C)c(=O)n(C)c4=O)c3Cl)c2Cl)ccc1CN1CC(C)(C(=O)O)C1` [Compound 1.085]: the IC50 was < 10 nM.

With `COc1nc(-c2cccc(-c3cccc(NC(=O)c4cn(C)c(=O)n(C)c4=O)c3C)c2Cl)ccc1CN1CCC(O)CC1` [Compound 1.046], the IC50 was < 10 nM.

On to `COc1nc(-c2cccc(-c3cccc(NC(=O)c4cn(C)c(=O)n(C)c4=O)c3C)c2Cl)ccc1CNCC(C)(C)C(N)=O` [Compound 1.040], for which the IC50 is < 10 nM.

As to `COc1nc(-c2cccc(-c3cccc(NC(=O)c4cn(C)c(=O)n(C)c4=O)c3C)c2Cl)ccc1CN1CC(C)(C(=O)O)C1` [Compound 1.053], the IC50 was < 10 nM.

As for `CCOc1nc(-c2cccc(-c3cccc(NC(=O)c4cn(C)c(=O)n(C)c4=O)c3C)c2Cl)ccc1CNC[C@@H]1CCC(=O)N1` [Compound 1.047], the concentration for half-maximal inhibition (IC50) is < 10 nM.

Take `COc1nc(-c2cccc(-c3cccc(NC(=O)c4cn(C)c(=O)n(C)c4=O)c3Cl)c2Cl)cnc1CN[C@@H]1CNC(=O)C1` [Compound 1.002]: the IC50 is < 10 nM.

Consider `COc1nc(-c2cccc(-c3cccc(NC(=O)c4cn(C)c(=O)n(C)c4=O)c3C)c2Cl)ccc1CN1CC2(CNC(=O)N2)C1` [Compound 1.025], for which the IC50 is < 10 nM.

As to `COc1nc(-c2cccc(-c3cccc(NC(=O)c4cn(C)c(=O)n(C)c4=O)c3Cl)c2Cl)ccc1CNCC1(O)CC1` [Compound 1.035], the IC50 is < 10 nM.

For orientation: IC50 means the midpoint of a concentration-inhibition curve. A lower IC50 goes with inhibition by little substance.

(Values after patent publication US11713307B2, “Heteroaryl-biphenyl amides for the treatment of PD-L1 diseases” (CHEMOCENTRYX, INC., priority 2019, dated 2023).)
